Results taken from publication PMC10629825, “Genetic validation of PfFKBP35 as an antimalarial drug target” (eLife, 2023).
pEC50: −log10 of the molar value.

How the values were obtained:
Assay type in all cases: biochemical
[1] = biological target: T1, N6-methyl transferase MT-A70 (Plasmodium falciparum, UniProt Q8I6Z2); assay: isothermal dose-response MS-CETSA on parasite protein lysate (putative target)
T1 construct: gene PF3D7_0729500; endogenous protein in parasite lysate

[2] = biological target: T2, pre-mRNA-splicing factor CEF1 (Plasmodium falciparum, UniProt Q7KQL1); assay: as above
T2 construct: gene PF3D7_1033600; endogenous protein in parasite lysate
T2 sequence (Q7KQL1 entry or part of it): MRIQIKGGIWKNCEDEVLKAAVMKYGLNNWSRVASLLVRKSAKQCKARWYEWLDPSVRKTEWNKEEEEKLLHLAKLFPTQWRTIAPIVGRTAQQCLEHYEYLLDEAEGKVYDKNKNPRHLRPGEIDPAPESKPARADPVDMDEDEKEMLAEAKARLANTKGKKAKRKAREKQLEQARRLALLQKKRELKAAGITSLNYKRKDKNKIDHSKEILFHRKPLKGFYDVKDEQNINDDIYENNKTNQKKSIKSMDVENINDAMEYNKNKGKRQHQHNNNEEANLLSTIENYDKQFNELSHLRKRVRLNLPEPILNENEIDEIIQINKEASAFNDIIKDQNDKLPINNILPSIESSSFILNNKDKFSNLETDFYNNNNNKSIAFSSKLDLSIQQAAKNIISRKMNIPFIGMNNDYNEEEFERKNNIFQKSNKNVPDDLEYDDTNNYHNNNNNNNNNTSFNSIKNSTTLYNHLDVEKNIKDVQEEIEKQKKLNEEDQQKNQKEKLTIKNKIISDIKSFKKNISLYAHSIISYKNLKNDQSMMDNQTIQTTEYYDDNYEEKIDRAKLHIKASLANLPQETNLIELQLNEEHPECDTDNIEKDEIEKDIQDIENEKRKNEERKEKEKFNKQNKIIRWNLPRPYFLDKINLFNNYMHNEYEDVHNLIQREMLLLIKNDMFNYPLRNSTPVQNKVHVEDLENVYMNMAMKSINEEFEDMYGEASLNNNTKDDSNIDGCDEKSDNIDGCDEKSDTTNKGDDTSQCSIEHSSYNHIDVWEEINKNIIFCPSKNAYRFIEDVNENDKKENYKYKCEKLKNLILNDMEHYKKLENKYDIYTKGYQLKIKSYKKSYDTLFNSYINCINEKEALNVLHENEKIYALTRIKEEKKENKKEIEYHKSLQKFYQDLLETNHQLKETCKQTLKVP

[3] = biological target: T3, PfFKBP35 (Plasmodium falciparum, UniProt Q8I4V8); assay: isothermal dose-response MS-CETSA on parasite protein lysate ([…]°C); live-cell CETSA EC50 […]
T3 construct: gene FKBP35; endogenous protein in parasite lysate
T3 sequence (Q8I4V8 whole entry): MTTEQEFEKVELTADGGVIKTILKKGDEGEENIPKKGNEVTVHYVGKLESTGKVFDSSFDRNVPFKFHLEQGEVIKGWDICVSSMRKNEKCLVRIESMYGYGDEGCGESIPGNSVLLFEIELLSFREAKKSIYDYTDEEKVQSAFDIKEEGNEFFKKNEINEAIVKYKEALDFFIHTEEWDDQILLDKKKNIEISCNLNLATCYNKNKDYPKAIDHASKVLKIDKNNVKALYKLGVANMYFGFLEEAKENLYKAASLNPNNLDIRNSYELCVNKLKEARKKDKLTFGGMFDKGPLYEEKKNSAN

T1 sequence (Q8I6Z2 entry or part of it): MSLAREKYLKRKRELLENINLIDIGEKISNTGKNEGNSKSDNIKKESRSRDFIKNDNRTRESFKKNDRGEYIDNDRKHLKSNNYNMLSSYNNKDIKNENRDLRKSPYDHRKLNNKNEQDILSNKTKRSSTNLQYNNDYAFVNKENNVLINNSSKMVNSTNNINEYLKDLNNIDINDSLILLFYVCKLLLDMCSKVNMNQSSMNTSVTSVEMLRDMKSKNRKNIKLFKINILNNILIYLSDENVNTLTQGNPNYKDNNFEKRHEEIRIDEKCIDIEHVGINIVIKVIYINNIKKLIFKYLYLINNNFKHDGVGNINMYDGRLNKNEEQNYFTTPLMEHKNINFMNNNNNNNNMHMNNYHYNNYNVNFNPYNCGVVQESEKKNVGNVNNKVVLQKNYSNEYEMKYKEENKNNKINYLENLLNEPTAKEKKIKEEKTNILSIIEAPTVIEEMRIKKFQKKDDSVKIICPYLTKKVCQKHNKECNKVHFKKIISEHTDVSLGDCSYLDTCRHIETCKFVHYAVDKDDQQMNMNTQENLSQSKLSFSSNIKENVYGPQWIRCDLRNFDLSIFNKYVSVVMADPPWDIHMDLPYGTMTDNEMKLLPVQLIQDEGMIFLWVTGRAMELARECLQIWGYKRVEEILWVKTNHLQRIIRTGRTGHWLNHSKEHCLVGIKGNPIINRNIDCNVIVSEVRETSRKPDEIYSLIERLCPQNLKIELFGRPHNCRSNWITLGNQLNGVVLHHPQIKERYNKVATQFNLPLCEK

C=CC[C@@H]1/C=C(\C)C[C@H](C)C[C@H](OC)[C@H]2O[C@@](O)(C(=O)C(=O)N3CCCC[C@H]3C(=O)O[C@H](/C(C)=C/[C@@H]3CC[C@@H](O)[C@H](OC)C3)[C@H](C)[C@@H](O)CC1=O)[C@H](C)C[C@@H]2OC [FK506]
pEC50 [1]: 5.70 | pEC50 [2]: 5.51 | pEC50 [3]: 6.82
